{"source": "paper PMC2981824", "about": "(Bioorganic & medicinal chemistry, 2010)", "key": {"P. falciparum K1 strain": {"system": "P. falciparum K1 strain", "type": "cell-based", "settings": "Plasmodium falciparum, K1, read-out: IC50 P. falciparum BS"}, "[1]": {"system": "P. yoelii liver stages (PyGFP sporozoites)", "assay": "Liver stage growth inhibition, flow cytometric", "type": "cell-based", "settings": "Plasmodium yoelii, 43 h, read-out: IC50 P. yoelii LS FC"}, "P. yoelii liver stages": {"system": "P. yoelii liver stages", "assay": "Liver stage growth inhibition, immunofluorescence analysis", "type": "cell-based", "settings": "Plasmodium yoelii, 43 h, read-out: IC50 P. yoelii LS IFA"}, "PfFabI": {"molecular_target": "T1, PfFabI (Plasmodium falciparum, UniProt Q9BH77)", "T1 sequence (Q9BH77 22-432)": "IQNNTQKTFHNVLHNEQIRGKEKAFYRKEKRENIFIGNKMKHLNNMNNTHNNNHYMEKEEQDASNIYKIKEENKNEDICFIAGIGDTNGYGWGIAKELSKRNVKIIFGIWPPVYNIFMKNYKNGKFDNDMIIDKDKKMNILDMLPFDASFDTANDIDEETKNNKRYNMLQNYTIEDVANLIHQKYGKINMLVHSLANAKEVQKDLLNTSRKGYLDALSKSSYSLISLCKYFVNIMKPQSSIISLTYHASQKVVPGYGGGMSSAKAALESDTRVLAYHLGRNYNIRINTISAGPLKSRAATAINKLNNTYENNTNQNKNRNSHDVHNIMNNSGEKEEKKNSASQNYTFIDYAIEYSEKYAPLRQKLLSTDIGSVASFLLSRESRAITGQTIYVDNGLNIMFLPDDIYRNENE", "assay": "biochemical", "type": "biochemical", "settings": "for Ki: Ki PfFabI"}, "PfFabZ": {"molecular_target": "T2, PfFabZ (Plasmodium falciparum, UniProt Q965D7)", "T2 sequence (Q965D7 19-230)": "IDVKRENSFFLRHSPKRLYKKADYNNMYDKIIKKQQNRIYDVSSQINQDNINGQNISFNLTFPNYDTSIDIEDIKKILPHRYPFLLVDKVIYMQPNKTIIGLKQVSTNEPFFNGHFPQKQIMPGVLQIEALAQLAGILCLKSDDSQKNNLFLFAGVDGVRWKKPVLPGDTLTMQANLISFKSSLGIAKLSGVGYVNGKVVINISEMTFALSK", "assay": "biochemical", "type": "biochemical"}, "PfFabG": {"molecular_target": "PfFabG (Plasmodium falciparum, UniProt Q8I2S7)", "assay": "biochemical", "type": "biochemical"}, "[2]": {"system": "L. donovani strain MHOM/ET/67/L82", "assay": "Leishmanicidal activity, axenic amastigotes", "type": "cell-based", "settings": "Leishmania donovani, 72 h, read-out: IC50 Leishmania donovani"}, "[3]": {"assay": "Cytotoxicity against L6 cells", "type": "cell-based, rat", "settings": "rat"}, "HepG2:CD81 cells": {"system": "HepG2:CD81 cells", "assay": "Toxicity to hepatoma cells", "type": "cell-based", "settings": "FC (7-AAD) or IFA (DAPI)"}, "[4]": {"molecular_target": "mycobacterial InhA (MtFabI) enzyme", "settings": "read-out: Ki InhA (MtFabI); competitive inhibition; cited from earlier work"}, "L6 cells": {"system": "L6 cells", "assay": "Cytotoxicity against L6 cells", "type": "cell-based, rat", "settings": "highest test concentration 90 μg/ml"}, "LS development": {"system": "LS development", "settings": "cited from earlier work"}, "[5]": {"system": "late liver phases of P. berghei", "settings": "cited from earlier work"}}, "note": "Values joined by “and” are separate entries in the source; they are usually repeats but may differ in a detail not shown here. Equal entries are not always repeated."}
{"smiles": "CCCCCCCCCCCCCC#CC(=O)O", "note": "[2-HDA, 2-Hexadecynoic acid]", "values": [{"measurement": "IC50", "setting": "P. falciparum K1 strain", "result": 10.4, "unit": "µg/mL"}, {"measurement": "IC50", "setting": "[1]", "result": 15.3, "unit": "µg/mL"}, {"measurement": "IC50", "setting": "P. yoelii liver stages", "result": 4.88, "unit": "µg/mL"}, {"measurement": "IC50", "setting": "PfFabI", "result": 1510, "unit": "nM"}, {"measurement": "Ki", "setting": "PfFabI; cofactor (NADH) varied", "result": 2580, "unit": "nM"}, {"measurement": "Ki", "setting": "PfFabI; substrate (crotonyl-CoA) varied", "result": "2890 nM and 2900 nM"}, {"measurement": "Inhibition type PfFabI", "setting": "PfFabI; with respect to crotonyl-CoA and the cofactor NADH", "result": "non-competitive"}, {"measurement": "IC50", "setting": "PfFabZ", "result": 2300, "unit": "nM"}, {"measurement": "Inhibition type PfFabZ", "setting": "PfFabZ; with respect to the substrate", "result": "competitive"}, {"measurement": "IC50", "setting": "PfFabG", "result": 13900, "unit": "nM"}, {"measurement": "Ki", "setting": "PfFabG; Ki PfFabG, cofactor NADPH varied", "result": 6000, "unit": "nM"}, {"measurement": "Inhibition type PfFabG", "setting": "PfFabG; cofactor NADPH varied", "result": "non-competitive"}, {"measurement": "Inhibition type PfFabG", "setting": "PfFabG; substrate acetoacetyl-CoA varied", "result": "competitive"}, {"measurement": "IC50", "setting": "[2]", "result": 4.5, "unit": "µg/mL"}, {"measurement": "IC50 at 72 h", "setting": "[3]", "result": 85.9, "unit": "µg/mL"}, {"measurement": "Toxicity against HepG2:CD81 hepatoma cells (in words)", "setting": "HepG2:CD81 cells", "result": "non-toxic"}, {"measurement": "Ki", "setting": "[4]", "result": "2100 ± 600", "unit": "nM"}]}
{"smiles": "CCCCCCCCCCC#CCCCC(=O)O", "note": "[5-HDA, 5-Hexadecynoic acid]", "values": [{"measurement": "IC50", "setting": "PfFabG", "result": "> 396000", "unit": "nM"}, {"measurement": "Toxicity against L6 cells (in words)", "setting": "L6 cells", "result": "completely non-toxic"}]}
{"smiles": "CCCCCCCCCC#CCCCCC(=O)O", "note": "[6-HDA, 6-Hexadecynoic acid]", "values": [{"measurement": "IC50", "setting": "PfFabG", "result": "> 396000", "unit": "nM"}]}
{"smiles": "CCCCCCC#CCCCCCCCC(=O)O", "note": "[9-HDA, 9-Hexadecynoic acid]", "values": [{"measurement": "IC50", "setting": "P. falciparum K1 strain", "result": 10.3, "unit": "µg/mL"}, {"measurement": "IC50", "setting": "PfFabG", "result": "> 396000", "unit": "nM"}]}
{"smiles": "CCCCCCCCCCCCCCCC(=O)O", "note": "[PA, Palmitic acid, reference compound]", "values": [{"measurement": "IC50", "setting": "PfFabI", "result": "> 390000", "unit": "nM"}, {"measurement": "IC50", "setting": "PfFabG", "result": "> 390000", "unit": "nM"}]}
{"smiles": "Oc1c(Cl)cc(Cl)c(Cl)c1Cc1c(O)c(Cl)cc(Cl)c1Cl", "note": "[hexachlorophene]", "values": [{"measurement": "IC50 LS development in vitro", "setting": "LS development", "result": 1.95, "unit": "µg/mL"}, {"measurement": "IC50", "setting": "LS development; read-out: IC50 LS development in vitro", "result": 4800, "unit": "nM"}]}
{"smiles": "Oc1cc(Cl)ccc1Oc1ccc(Cl)cc1Cl", "note": "[triclosan]", "values": [{"measurement": "IC50 late liver phases of P. berghei", "setting": "[5]", "result": 11.4, "unit": "µg/mL"}, {"measurement": "IC50", "setting": "[5]; read-out: IC50 late liver phases of P. berghei", "result": 39400, "unit": "nM"}]}
